US12239654B2, “Compounds and methods for treating neurological and cardiovascular conditions” (Astrocyte Pharmaceuticals, Inc., priority 2016, dated 2025)

Legend:
[1] = Plasma binding determination by plasma ultrafiltration, neonatal pig; type: in vitro ADME; conditions: female, 37° C., read-out: % Bound Mean (converted)
Method: Plasma ultrafiltrate blank samples were prepared by thawing frozen plasma and then pre-warming plasma in a humidified 5% CO2 chamber at 37 C for 60 minutes. Aliquots of 800 ul were transferred to Centrifree Centrifugal Filters (Ultracel regenerated cellulose (NMWL 30,000 amu) Lot R5JA31736) and centrifuged at 2900 RPM at 37 C for 10 minutes; plasma water filtrates were collected and used in preparation of standards, blanks and QC standards.
Plasma Binding Determination. […] Plasma samples were pre-warmed for 60 minutes in a humidified, 5% CO2 incubator maintained at 37° C. […] Spiked plasma samples were incubated on a rotary mixer in a humidified 5% CO2 chamber at 37° C. for a minimum of 60 minutes. After 60 minutes, three 800 ul aliquots of each sample were added to Centrifree centrifugal filters. The filters were subjected to centrifugation at 2900 rpm for 10 minutes at 37° C. Three 100 ul aliquots of residual plasma were collected along with ultrafiltrate for bioanalysis.
(§5) For each tissue matrix, standard curves were created and LLOQ/ULOQ concentrations determined.

[2] = Brain binding determination by brain homogenate ultrafiltration, neonatal pig; type: in vitro ADME; conditions: female, pH 7.4, 37° C., read-out: % Bound Mean (converted)
Method: Animals and Tissue Preparation. Plasma and brain samples from female neonatal pigs were obtained from the University of Pennsylvania and stored at −80° C. until use.
Brains were weighed and homogenized with 1:9 phosphate-buffered saline, pH 7.4 using an Omni tissue homogenizer.
Pooled homogenized brains were pre-warmed for 60 minutes in a humidified, 5% CO2 incubator maintained at 37° C. […] Spiked pooled brain homogenates were placed on a Nutator mixer in a humidified, 5% CO2 incubator at 37° C. for 60 minutes. After 60 minutes, three 800 ul aliquots of each sample were added to Centrifree centrifugal filters. The filters were subjected to centrifugation at 2900 rpm for 10 minutes at 37 C. Aliquots of residual brain homogenate and ultrafiltrate were collected for bioanalysis.
as §5

[3] = target: T1, mouse A3 adenosine receptor (Mus musculus, UniProt Q61618); test: cAMP accumulation at mouse A3 receptors expressed in CHO cells; type: cell-based
T1 construct: expressed in transfected cells; whole cells for cAMP
T1 sequence (Q61618 1-319): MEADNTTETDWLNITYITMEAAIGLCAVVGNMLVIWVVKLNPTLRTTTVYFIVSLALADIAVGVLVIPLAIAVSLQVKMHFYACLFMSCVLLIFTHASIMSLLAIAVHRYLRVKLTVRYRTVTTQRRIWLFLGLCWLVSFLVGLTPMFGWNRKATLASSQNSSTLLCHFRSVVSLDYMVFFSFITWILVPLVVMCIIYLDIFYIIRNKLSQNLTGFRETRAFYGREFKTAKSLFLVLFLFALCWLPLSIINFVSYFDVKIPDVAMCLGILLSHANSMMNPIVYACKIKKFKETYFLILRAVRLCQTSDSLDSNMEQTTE
Method: Additionally cAMP experiments were conducted at CHO cells recombinantly expressing human A3 or mouse A3 adenosine receptors, respectively.

[4] = LC-MS/MS metabolite scouting of MRS2365 in plasma and whole blood; type: in vitro ADME; conditions: EDTA-treated mouse and human whole blood
Method: Plasma Stability Determination: MRS2365, enalapril and procaine were solubilized in phosphate-buffered saline, pH 7.4. […] Stability incubations were initiated with the addition of MRS2365 (1 μM final concentration). Initial assessments of stability in EDTA-generated plasma utilized incubation timepoints of 0, 10, 30, 60, 120 and 240 minutes (FIGS. 3 and 4). Subsequent studies comparing EDTA- and heparin-generated plasma utilized incubation timepoints of 0, 1, 2.5, 5, 7.5, 10 and 30 minutes (FIG. 7). Additional plasma stability incubations comparing EDTA- and heparin-generated plasma were performed using timepoints of 0, 5, 10, 20, 30, 45, 60 and 90 seconds (FIG. 8). […]
Plasma and blood samples were also qualitatively analyzed for MRS2365 metabolites utilizing a LC-MS/MS-based “metabolite scouting” protocol. […] Blood and plasma samples were analyzed by both positive- and negative-ion LC/MS-MS for parent compound and metabolites as it was anticipated that the phosphorylated compounds would preferentially generate negative ions while the riboside MRS4322 would preferentially generate positive ions. In positive-ion mode, extracted ion chromatograms monitored masses in the range of 323.7-324.7 and 403.7-404.7 to scout for MRS4322 and MRS2347, respectively. Any ion peaks in these ranges were further analyzed to generate product ion spectra for these ion chromatogram peaks. […]

[5] = Stability of MRS2365 incubated in phosphate-buffered saline; type: physicochemical
[6] = In vitro stability of MRS2365 in mouse whole blood; type: in vitro ADME; conditions: male, CD-1, EDTA-treated mouse whole blood
Method: (§1) Whole blood was obtained from male CD-1 mice and human volunteers at Seventh Wave Laboratories (Maryland Heights, MO). Plasma and blood samples were prepared using either EDTA (1 mM) or lithium heparin as anticoagulants.
(§2) Blood Stability Determination: MRS2365, enalapril and procaine were solubilized in phosphate-buffered saline, pH 7.4. […] Stability incubations were initiated with the addition of MRS2365 (1 μM final concentration) (FIGS. 5 and 6). Blood sample aliquots were obtained at 0, 1, 2.5, 7.5, 10 and 30 minutes and placed in microtainer tubes. For metabolite scouting analyses, MRS2365 was incubated in heparinized human whole blood at a concentration of 100 μM for 10 or 30 minutes (FIG. 10). In all studies, plasma was immediately prepared by centrifugation at 4° C., placed in microtainer tubes, frozen on dry ice and stored at −80° C. until analysis.
(§3) The following table outlines the LC and MS/MS conditions employed (Table 11).
(§4) The calibration range for MRS2365 plasma and blood concentration standard curves was 5-5000 ng/mL. Quality control samples were utilized at concentrations of 32, 160, 800 and 4000 ng/mL.

[7] = In vitro stability of MRS2365 in human whole blood; type: in vitro ADME; conditions: EDTA-treated human whole blood, read-out: estimated half-life
Method: as §1, §2, §3, §4

In the case of `CSc1nc(N)c2ncn([C@H]3[C@H](O)[C@H](O)[C@]4(CO)C[C@H]34)c2n1` [MRS4322], the fraction unbound at 60 min, 1 uM [1] is reported as 0.784, the fraction unbound at 60 min, 1 uM [2] is reported as 0.253 and the EC50 ([3]; CHO cells stably expressing mouse A3R, read-out: EC50 ± SEM, Mouse A3R, cAMP accumulation) is reported as 759 ± 170 nM. For the same molecule, the Emax at 100 µM ([3]; read-out: efficacy at 100 μM concentration in % relative to maximal effect of NECA, Mouse A3R, 100 μM, cAMP accumulation, CHO cells) was 72%.
For `CSc1nc(N)c2ncn([C@H]3[C@H](O)[C@H](O)[C@]4(COP(=O)(O)OP(=O)(O)O)C[C@H]34)c2n1` [MRS2365], the metabolites detected [4] was “No metabolites were detected”, the “stability when incubated in phosphate-buffered saline” value [5] was “completely stable” and the half-life at 1 μM [6] was 47 min. The half-life at 1 μM [7] was > 240 min.
